Results from patent publication US6576675B1, “Z-styryl sulfone anticancer agents” (Temple University - Of the Commonwealth System of Higher …, priority 1999, dated 2003).

tested on: Breast cell lines: MCF-7, BT-20, 435; experiment: Viability assay (Trypan blue exclusion), breast tumor cell lines; format: cell-based; conditions: 2.5 mM, 72 hours, read-out: % Death, tumor cell type Breast
Method: (§1) The effect of the Z-styryl sulfones on normal fibroblasts and on tumor cells of breast, prostate and ovarian origin was examined utilizing the following cell lines: breast tumor cell lines: MCF-7, BT-20 and 435; prostate tumor cell lines LnCaP and DU-145; and ovarian tumor cell lines OVCAR and SKOV3. NIH/3T3 and HFL cells, which are normal murine and human fibroblasts, respectively, were also tested. LnCap is an androgen-dependent prostate tumor cell line. MCF-7 is an estrogen-responsive breast tumor cell line, while BT-20 and 435 are estrogen-unresponsive breast tumor cell lines. MCF-7, BT-20 and 435 were grown in Dulbecco's modified Eagle's medium (DMEM) containing 10% fetal bovine serum supplemented with penicillin and streptomycin. LnCaP and Du145 were cultured in RPMI with 10% fetal bovine serum containing penicillin and streptomycin. NIH3T3 and HFL cells were grown in DMEM containing 10% calf serum supplemented with penicillin and streptomycin. All cell cultures were maintained at 37° C. in a humidified atmosphere of 5% CO2.
(§2) Cells were treated with test compound at 2.5 mM concentration and cell viability was determined after 72 hours by the Trypan blue exclusion method.
(§3) Activity for each compound is reported as a range of cell induced death (% Death) with the lowest activity in the range of 10-20% and the highest being above 75%.

SMILES | cytotoxicity at 2500 µM [%]
O=S(=O)(/C=C\c1ccc(F)cc1)Cc1ccccc1Cl [Example 11, Z-4-Fluorostyryl 2-Chlorobenzylsulfone] | 20 to 25
O=S(=O)(/C=C\c1ccc(F)cc1)Cc1ccc(F)cc1 [Example 12, Z-4-Fluorostyryl 4-Fluorobenzylsulfone] | 40 to 50
O=S(=O)(/C=C\c1ccc(Br)cc1)Cc1ccccc1 [Example 13, Z-4-Bromostyryl Benzylsulfone] | 20 to 25
O=S(=O)(/C=C\c1ccc(Br)cc1)Cc1ccc(Cl)cc1 [Example 14, Z-4-Bromostyryl 4-Chlorobenzylsulfone] | > 75
O=S(=O)(/C=C\c1ccc(Br)cc1)Cc1ccccc1Cl [Example 15, Z-4-Bromostyryl 2-Chlorobenzylsulfone] | 20 to 25
O=S(=O)(/C=C\c1ccc(Br)cc1)Cc1ccc(F)cc1 [Example 16, Z-4-Bromostyryl 4-Fluorobenzylsulfone] | 60 to 70
Cc1ccc(/C=C\S(=O)(=O)Cc2ccccc2)cc1 [Example 17, Z-4-Methylstyryl Benzylsulfone] | 20 to 25
Cc1ccc(/C=C\S(=O)(=O)Cc2ccc(Cl)cc2)cc1 [Example 18, Z-4-Methylstyryl 4-Chlorobenzylsulfone] | 20 to 25
Cc1ccc(/C=C\S(=O)(=O)Cc2ccccc2Cl)cc1 [Example 19, Z-4-Methylstyryl 2-Chlorobenzylsulfone] | 20 to 25
Cc1ccc(/C=C\S(=O)(=O)Cc2ccc(F)cc2)cc1 [Example 20, Z-4-Methylstyryl 4-Fluorobenzylsulfone] | 20 to 25

tested on: Prostate cell lines: LnCaP, DU-145; experiment: Viability assay (Trypan blue exclusion), prostate tumor cell lines; format: cell-based; conditions: 2.5 mM, 72 hours, read-out: % Death, tumor cell type Prostate
Method: as §1, §2, §3

SMILES | cytotoxicity at 2500 µM [%]
O=S(=O)(/C=C\c1ccc(F)cc1)Cc1ccccc1Cl [Example 11, Z-4-Fluorostyryl 2-Chlorobenzylsulfone] | 20 to 25
O=S(=O)(/C=C\c1ccc(F)cc1)Cc1ccc(F)cc1 [Example 12, Z-4-Fluorostyryl 4-Fluorobenzylsulfone] | 40 to 50
O=S(=O)(/C=C\c1ccc(Br)cc1)Cc1ccccc1 [Example 13, Z-4-Bromostyryl Benzylsulfone] | 20 to 25
O=S(=O)(/C=C\c1ccc(Br)cc1)Cc1ccc(Cl)cc1 [Example 14, Z-4-Bromostyryl 4-Chlorobenzylsulfone] | > 75
O=S(=O)(/C=C\c1ccc(Br)cc1)Cc1ccccc1Cl [Example 15, Z-4-Bromostyryl 2-Chlorobenzylsulfone] | 20 to 25
O=S(=O)(/C=C\c1ccc(Br)cc1)Cc1ccc(F)cc1 [Example 16, Z-4-Bromostyryl 4-Fluorobenzylsulfone] | 60 to 70
Cc1ccc(/C=C\S(=O)(=O)Cc2ccccc2)cc1 [Example 17, Z-4-Methylstyryl Benzylsulfone] | 20 to 25
Cc1ccc(/C=C\S(=O)(=O)Cc2ccc(Cl)cc2)cc1 [Example 18, Z-4-Methylstyryl 4-Chlorobenzylsulfone] | 20 to 25
Cc1ccc(/C=C\S(=O)(=O)Cc2ccccc2Cl)cc1 [Example 19, Z-4-Methylstyryl 2-Chlorobenzylsulfone] | 20 to 25
Cc1ccc(/C=C\S(=O)(=O)Cc2ccc(F)cc2)cc1 [Example 20, Z-4-Methylstyryl 4-Fluorobenzylsulfone] | 20 to 25

tested on: Ovarian cell lines: OVCAR, SKOV3; experiment: Viability assay (Trypan blue exclusion), ovarian tumor cell lines; format: cell-based; conditions: Homo sapiens, 2.5 mM, 72 hours, read-out: % Death, tumor cell type Ovarian
Method: as §1, §2, §3

SMILES | cytotoxicity at 2500 µM [%]
O=S(=O)(/C=C\c1ccc(F)cc1)Cc1ccccc1Cl [Example 11, Z-4-Fluorostyryl 2-Chlorobenzylsulfone] | 20 to 25
O=S(=O)(/C=C\c1ccc(F)cc1)Cc1ccc(F)cc1 [Example 12, Z-4-Fluorostyryl 4-Fluorobenzylsulfone] | 40 to 50
O=S(=O)(/C=C\c1ccc(Br)cc1)Cc1ccccc1 [Example 13, Z-4-Bromostyryl Benzylsulfone] | 20 to 25
O=S(=O)(/C=C\c1ccc(Br)cc1)Cc1ccc(Cl)cc1 [Example 14, Z-4-Bromostyryl 4-Chlorobenzylsulfone] | > 75
O=S(=O)(/C=C\c1ccc(Br)cc1)Cc1ccccc1Cl [Example 15, Z-4-Bromostyryl 2-Chlorobenzylsulfone] | 20 to 25
O=S(=O)(/C=C\c1ccc(Br)cc1)Cc1ccc(F)cc1 [Example 16, Z-4-Bromostyryl 4-Fluorobenzylsulfone] | 60 to 70
Cc1ccc(/C=C\S(=O)(=O)Cc2ccccc2)cc1 [Example 17, Z-4-Methylstyryl Benzylsulfone] | 20 to 25
Cc1ccc(/C=C\S(=O)(=O)Cc2ccc(Cl)cc2)cc1 [Example 18, Z-4-Methylstyryl 4-Chlorobenzylsulfone] | 20 to 25
Cc1ccc(/C=C\S(=O)(=O)Cc2ccccc2Cl)cc1 [Example 19, Z-4-Methylstyryl 2-Chlorobenzylsulfone] | 20 to 25
Cc1ccc(/C=C\S(=O)(=O)Cc2ccc(F)cc2)cc1 [Example 20, Z-4-Methylstyryl 4-Fluorobenzylsulfone] | 20 to 25

tested on: Lung cell lines: N417, H157; experiment: Viability assay (Trypan blue exclusion), lung tumor cell lines; format: cell-based; conditions: 2.5 mM, 72 hours, read-out: % Death, tumor cell type Lung
Method: as §2, §3
(§4) The procedure of Example 22 was followed for certain of the (Z)-benzylsulfones, substituting the following cancer cell lines: lung, N417 and H157; renal, CAKI-1 and CAKI-2; glioma, U87 and SW1088.

SMILES | cytotoxicity at 2500 µM [%]
O=S(=O)(/C=C\c1ccc(F)cc1)Cc1ccccc1Cl [Example 11, Z-4-Fluorostyryl 2-Chlorobenzylsulfone] | 20 to 25
O=S(=O)(/C=C\c1ccc(F)cc1)Cc1ccc(F)cc1 [Example 12, Z-4-Fluorostyryl 4-Fluorobenzylsulfone] | 40 to 50
O=S(=O)(/C=C\c1ccc(Br)cc1)Cc1ccc(Cl)cc1 [Example 14, Z-4-Bromostyryl 4-Chlorobenzylsulfone] | > 75
O=S(=O)(/C=C\c1ccc(Br)cc1)Cc1ccccc1Cl [Example 15, Z-4-Bromostyryl 2-Chlorobenzylsulfone] | 20 to 25
O=S(=O)(/C=C\c1ccc(Br)cc1)Cc1ccc(F)cc1 [Example 16, Z-4-Bromostyryl 4-Fluorobenzylsulfone] | 60 to 70
Cc1ccc(/C=C\S(=O)(=O)Cc2ccc(Cl)cc2)cc1 [Example 18, Z-4-Methylstyryl 4-Chlorobenzylsulfone] | 20 to 25
Cc1ccc(/C=C\S(=O)(=O)Cc2ccc(F)cc2)cc1 [Example 20, Z-4-Methylstyryl 4-Fluorobenzylsulfone] | 20 to 25

tested on: Renal cell lines: CAKI-1, CAKI-2; experiment: Viability assay (Trypan blue exclusion), renal tumor cell lines; format: cell-based; conditions: 2.5 mM, 72 hours, read-out: % Death, tumor cell type Renal
Method: as §2, §3, §4

SMILES | cytotoxicity at 2500 µM [%]
O=S(=O)(/C=C\c1ccc(F)cc1)Cc1ccccc1Cl [Example 11, Z-4-Fluorostyryl 2-Chlorobenzylsulfone] | 20 to 25
O=S(=O)(/C=C\c1ccc(F)cc1)Cc1ccc(F)cc1 [Example 12, Z-4-Fluorostyryl 4-Fluorobenzylsulfone] | 40 to 50
O=S(=O)(/C=C\c1ccc(Br)cc1)Cc1ccc(Cl)cc1 [Example 14, Z-4-Bromostyryl 4-Chlorobenzylsulfone] | > 75
O=S(=O)(/C=C\c1ccc(Br)cc1)Cc1ccccc1Cl [Example 15, Z-4-Bromostyryl 2-Chlorobenzylsulfone] | 20 to 25
O=S(=O)(/C=C\c1ccc(Br)cc1)Cc1ccc(F)cc1 [Example 16, Z-4-Bromostyryl 4-Fluorobenzylsulfone] | 60 to 70
Cc1ccc(/C=C\S(=O)(=O)Cc2ccc(Cl)cc2)cc1 [Example 18, Z-4-Methylstyryl 4-Chlorobenzylsulfone] | 20 to 25
Cc1ccc(/C=C\S(=O)(=O)Cc2ccc(F)cc2)cc1 [Example 20, Z-4-Methylstyryl 4-Fluorobenzylsulfone] | 20 to 25

tested on: Glioma cell lines: U87, SW1088; experiment: Viability assay (Trypan blue exclusion), glioma cell lines; format: cell-based; conditions: Homo sapiens, 2.5 mM, 72 hours, read-out: % Death, tumor cell type Glioma
Method: as §2, §3, §4

SMILES | cytotoxicity at 2500 µM [%]
O=S(=O)(/C=C\c1ccc(F)cc1)Cc1ccccc1Cl [Example 11, Z-4-Fluorostyryl 2-Chlorobenzylsulfone] | 20 to 25
O=S(=O)(/C=C\c1ccc(F)cc1)Cc1ccc(F)cc1 [Example 12, Z-4-Fluorostyryl 4-Fluorobenzylsulfone] | 40 to 50
O=S(=O)(/C=C\c1ccc(Br)cc1)Cc1ccc(Cl)cc1 [Example 14, Z-4-Bromostyryl 4-Chlorobenzylsulfone] | > 75
O=S(=O)(/C=C\c1ccc(Br)cc1)Cc1ccccc1Cl [Example 15, Z-4-Bromostyryl 2-Chlorobenzylsulfone] | 20 to 25
O=S(=O)(/C=C\c1ccc(Br)cc1)Cc1ccc(F)cc1 [Example 16, Z-4-Bromostyryl 4-Fluorobenzylsulfone] | 60 to 70
Cc1ccc(/C=C\S(=O)(=O)Cc2ccc(Cl)cc2)cc1 [Example 18, Z-4-Methylstyryl 4-Chlorobenzylsulfone] | 20 to 25
Cc1ccc(/C=C\S(=O)(=O)Cc2ccc(F)cc2)cc1 [Example 20, Z-4-Methylstyryl 4-Fluorobenzylsulfone] | 20 to 25
